Experimental data taken from patent publication US8765748B2, “Indazolyl, benzimidazolyl, benzotriazolyl substituted indolinone derivatives as kinase inhibitors useful in the treatment of cancer” (University Health Network, priority 2007, dated 2014).

Tests used:
human PLK4 = target: T1, human PLK4 (Homo sapiens, UniProt O00444); test: PLK4 Inhibition Assay (indirect ELISA); assay type: biochemical; conditions: 15 μM ATP, 4 nM GST-PLK4; read-out: PLK4 IC50 Ranges
T1 construct: amino terminal GST fusion of residues 1-391 of human PLK4; made in house; host or cells: E. coli
T1 sequence (O00444 1-391): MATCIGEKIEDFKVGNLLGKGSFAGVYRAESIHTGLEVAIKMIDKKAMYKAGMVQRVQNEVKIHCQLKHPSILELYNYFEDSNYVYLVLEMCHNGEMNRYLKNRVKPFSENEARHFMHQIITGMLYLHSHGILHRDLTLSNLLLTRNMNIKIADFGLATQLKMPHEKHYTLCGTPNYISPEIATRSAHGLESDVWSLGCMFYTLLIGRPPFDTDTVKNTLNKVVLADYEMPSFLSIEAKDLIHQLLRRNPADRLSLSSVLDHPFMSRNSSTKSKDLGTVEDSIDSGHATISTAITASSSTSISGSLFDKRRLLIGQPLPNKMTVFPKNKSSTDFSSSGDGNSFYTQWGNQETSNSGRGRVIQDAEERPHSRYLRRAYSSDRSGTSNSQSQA
Method in brief: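 Dephosphorylated (lambda phosphatase) GST-PLK4 activity read by indirect ELISA. Compounds were pre-incubated with enzyme for 15 minutes before ATP was added. IC50 came from a non-linear 4-point logistic fit.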

PLK3 = target: T2, PLK3 (Homo sapiens, UniProt Q9H4B4); test: PLK3 Inhibition Assay (Z-Lyte); assay type: biochemical; conditions: 100 μM ATP, 21 nM PLK3
T2 construct: purchased Invitrogen PV3812
T2 sequence (Q9H4B4 whole entry): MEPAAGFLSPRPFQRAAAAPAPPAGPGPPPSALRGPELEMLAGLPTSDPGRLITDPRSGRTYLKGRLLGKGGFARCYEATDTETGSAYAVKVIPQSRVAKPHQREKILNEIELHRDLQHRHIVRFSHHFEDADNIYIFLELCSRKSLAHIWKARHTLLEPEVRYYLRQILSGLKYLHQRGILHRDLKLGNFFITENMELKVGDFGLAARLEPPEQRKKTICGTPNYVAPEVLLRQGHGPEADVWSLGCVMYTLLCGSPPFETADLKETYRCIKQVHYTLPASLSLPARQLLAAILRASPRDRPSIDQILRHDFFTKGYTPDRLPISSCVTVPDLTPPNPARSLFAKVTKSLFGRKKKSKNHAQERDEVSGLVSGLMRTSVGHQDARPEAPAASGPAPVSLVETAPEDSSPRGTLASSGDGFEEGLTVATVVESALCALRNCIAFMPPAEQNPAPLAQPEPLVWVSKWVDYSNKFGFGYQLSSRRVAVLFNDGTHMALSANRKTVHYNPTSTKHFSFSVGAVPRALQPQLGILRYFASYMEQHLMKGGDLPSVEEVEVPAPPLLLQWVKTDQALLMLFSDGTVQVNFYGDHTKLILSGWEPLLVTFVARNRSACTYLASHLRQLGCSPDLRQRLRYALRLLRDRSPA
Method: (§1) PLK3 inhibition was determined using the Z-Lyte assay kit from Invitrogen (cat #PV3802). The assay was performed using the recommended manufacturer's instructions with 100 μM ATP and 21 nM PLK3 (Invitrogen cat #PV3812). The % inhibition values were determined according to the manufacturer's directions and IC50 values were obtained using a non-linear 4 point logistic curve fit (XLfit4, IDBS).

Aurora B = target: T3, Aurora B (Homo sapiens, UniProt Q96GD4); test: Aurora B Inhibition Assay (Z-Lyte); assay type: biochemical; conditions: for IC50: 128 μM ATP, 28 nM Aurora B, read-out: Aurora B IC50 Ranges
T3 construct: purchased Invitrogen PV3970
T3 sequence (Q96GD4 whole entry): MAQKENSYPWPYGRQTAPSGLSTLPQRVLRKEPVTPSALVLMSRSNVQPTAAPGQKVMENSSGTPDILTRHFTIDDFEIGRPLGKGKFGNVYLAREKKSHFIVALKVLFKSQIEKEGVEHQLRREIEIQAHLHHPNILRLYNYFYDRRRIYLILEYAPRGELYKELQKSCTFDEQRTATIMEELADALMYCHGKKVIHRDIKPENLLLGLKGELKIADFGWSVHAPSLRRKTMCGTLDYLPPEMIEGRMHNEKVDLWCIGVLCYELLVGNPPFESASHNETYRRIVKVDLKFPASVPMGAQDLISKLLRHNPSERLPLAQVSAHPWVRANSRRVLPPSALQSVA
Method: as §1, with “Aurora B” for “PLK3”, “Invitrogen.” for “Invitrogen (cat #PV3802).”, “128” for “100”, “28” for “21”, “#PV3970).” for “#PV3812).”, “IDBS)” for “IDBS).”

PLK2 = target: T4, PLK2 (Homo sapiens, UniProt Q9NYY3); test: PLK2 Inhibition Assay (Z-Lyte); assay type: biochemical; conditions: for inhibition at 10 µM: 10 μM compound, read-out: PLK2 relative inhibition percentage at a dose of 10 μM
T4 construct: purchased Invitrogen PV4204
T4 sequence (Q9NYY3 whole entry): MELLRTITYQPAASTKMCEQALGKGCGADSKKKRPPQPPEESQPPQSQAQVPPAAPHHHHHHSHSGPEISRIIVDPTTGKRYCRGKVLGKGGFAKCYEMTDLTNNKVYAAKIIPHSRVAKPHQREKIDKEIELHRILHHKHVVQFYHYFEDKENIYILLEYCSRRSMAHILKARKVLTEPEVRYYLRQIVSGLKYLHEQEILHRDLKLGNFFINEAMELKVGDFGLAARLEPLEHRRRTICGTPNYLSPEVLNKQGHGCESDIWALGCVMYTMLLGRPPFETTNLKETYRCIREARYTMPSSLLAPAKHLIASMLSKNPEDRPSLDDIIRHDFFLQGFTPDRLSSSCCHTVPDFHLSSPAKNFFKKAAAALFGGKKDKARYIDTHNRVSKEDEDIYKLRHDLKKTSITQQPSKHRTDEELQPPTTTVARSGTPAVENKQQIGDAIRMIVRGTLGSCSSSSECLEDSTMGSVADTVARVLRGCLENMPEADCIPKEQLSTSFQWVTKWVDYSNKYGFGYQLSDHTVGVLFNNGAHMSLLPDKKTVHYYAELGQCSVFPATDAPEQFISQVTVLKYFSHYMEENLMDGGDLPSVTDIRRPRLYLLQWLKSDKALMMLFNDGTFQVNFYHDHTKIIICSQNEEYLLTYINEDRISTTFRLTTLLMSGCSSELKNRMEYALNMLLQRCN
Method: as §1, with “PLK2” for “PLK3”, “60” for “100”, “133” for “21”, “#PV4204).” for “#PV3812).”, “IDBS)” for “IDBS).”

[1] = test system: MDA-MB-468 basal breast cancer cell line; test: Cell growth inhibition, Sulforhodamine B assay (SRB); assay type: cell-based; conditions: Homo sapiens, MDA-MB-468, 120 h; 5 days culture, SRB; read-out: Cell Line GI50 Range, MDA-MB-468
Method: (§2) Breast cancer cells (MCF-7, MDA-MB-468, HCC1954), colon cancer cells (SW620) and lung cancer cells (A549), together with human mammary epithelial primary cells (HMEC), were seeded (1000 to 4000 per 80 μl per well depending on the cell growth rate) into 96 well plates, 24 hours before compound overlay. Compounds were prepared as 10 mM stock solutions in 100% DMSO which were diluted with DMEM (Dulbecco's Modified Eagle's Medium) cell growth Medium (Invitrogen, Burlington, ON, Canada) containing 10% FBS (Fetal Bovine Serum) to concentrations ranging from 50 nM to 250 μM. Aliquots (20 μl) from each concentration were overlaid to 80 μl of the pre-seeded cells in the 96 well plates to make final concentrations of 10 nM to 50 μM. The cells were cultured for 5 days before the Sulforhodamine B assay (SRB) was performed to determine the compound's cell growth inhibition activity.
(§3) Sulforhodamine B (purchased from Sigma, Oakville, ON, Canada) is a water-soluble dye that binds to the basic amino acids of the cellular proteins. Thus, colorimetric measurement of the bound dye provides an estimate of the total protein mass that is related to the cell number. the cells are fixed in situ by gently aspirating off the culture media and adding 50 μl ice cold 10% Tri-chloroacetic Acid (TCA) per well and incubate at 4° C. for 30-60 min, The plates are washed with water five times and allowed to air dry for 5 min. Addition of 50 μl 0.4% (w/v) SRB solution in 1% (v/v) acetic acid to each well and incubatation for 30 min at RT completes the staining reaction. Following staining, plates are washed four times with 1% acetic acid to remove unbound dye and then allowed to air dry for 5 min. The stain is solubilized with 100 μl of 10 mM Tris pH10.5 per well. Absorbance is read at 570 nm.
(§4) The percentage (%) of relative growth inhibition was calculated by comparing to DMSO treated only cells (100%). GI50's were determined for compounds with cytotoxic activity. The GI50 was calculated using GraphPad PRISM software (GraphPad Software, Inc., San Diego, Calif., USA).

[2] = test system: HCC1954 basal breast cancer cell line; test: as above; assay type: cell-based; conditions: Homo sapiens, HCC1954, 120 h, 5 days culture, read-out: Cell Line GI50 Range, HCC-1954
Method: as §2, §3, §4

A549 lung cancer cells = test: as above; assay type: cell-based; conditions: Homo sapiens, A549, 120 h, 5 days culture, read-out: Cell Line GI50 Range, A-549
Method: as §2, §3, §4

SW620 colon cancer cells = test: as above; assay type: cell-based; conditions: Homo sapiens, SW-620, 120 h, 5 days culture, read-out: Cell Line GI50 Range, SW-620
Method: as §2, §3, §4

[3] = test system: MCF-7 luminal breast cancer cell line; test: as above; assay type: cell-based; conditions: Homo sapiens, MCF7, 120 h; 5 days culture, SRB; read-out: Cell Line GI50 Range, MCF-7
Method: as §2, §3, §4

Aurora A = target: T5, Aurora A (Homo sapiens, UniProt O14965); test: Aurora A Inhibition Assay (Z-Lyte); assay type: biochemical; conditions: for IC50: 20 μM ATP, 12 nM Aurora A, read-out: Aurora A IC50 Ranges
T5 construct: purchased Invitrogen PV3612
T5 sequence (O14965 1-403): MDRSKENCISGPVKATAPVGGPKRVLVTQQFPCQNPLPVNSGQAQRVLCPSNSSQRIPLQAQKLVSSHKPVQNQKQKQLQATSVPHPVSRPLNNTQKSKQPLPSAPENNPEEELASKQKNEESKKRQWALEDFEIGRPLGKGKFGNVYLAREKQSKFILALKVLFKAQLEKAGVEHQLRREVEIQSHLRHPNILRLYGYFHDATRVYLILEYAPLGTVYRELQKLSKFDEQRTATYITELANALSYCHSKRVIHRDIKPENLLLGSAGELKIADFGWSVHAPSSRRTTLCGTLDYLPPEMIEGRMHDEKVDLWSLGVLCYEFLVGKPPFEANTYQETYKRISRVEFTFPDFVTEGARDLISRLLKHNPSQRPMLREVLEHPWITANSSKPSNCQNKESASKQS
Method: as §1, with “Aurora A” for “PLK3”, “Invitrogen.” for “Invitrogen (cat #PV3802).”, “20” for “100”, “12” for “21”, “#PV3612).” for “#PV3812).”, “IDBS)” for “IDBS).”

PLK1 = target: T6, PLK1 (Homo sapiens, UniProt P53350); test: PLK1 Inhibition Assay (Z-Lyte); assay type: biochemical; conditions: for IC50: 25 μM ATP, 8 nM PLK1, read-out: PLK1 IC50 Ranges
T6 construct: purchased Invitrogen PV3501
T6 sequence (P53350 whole entry): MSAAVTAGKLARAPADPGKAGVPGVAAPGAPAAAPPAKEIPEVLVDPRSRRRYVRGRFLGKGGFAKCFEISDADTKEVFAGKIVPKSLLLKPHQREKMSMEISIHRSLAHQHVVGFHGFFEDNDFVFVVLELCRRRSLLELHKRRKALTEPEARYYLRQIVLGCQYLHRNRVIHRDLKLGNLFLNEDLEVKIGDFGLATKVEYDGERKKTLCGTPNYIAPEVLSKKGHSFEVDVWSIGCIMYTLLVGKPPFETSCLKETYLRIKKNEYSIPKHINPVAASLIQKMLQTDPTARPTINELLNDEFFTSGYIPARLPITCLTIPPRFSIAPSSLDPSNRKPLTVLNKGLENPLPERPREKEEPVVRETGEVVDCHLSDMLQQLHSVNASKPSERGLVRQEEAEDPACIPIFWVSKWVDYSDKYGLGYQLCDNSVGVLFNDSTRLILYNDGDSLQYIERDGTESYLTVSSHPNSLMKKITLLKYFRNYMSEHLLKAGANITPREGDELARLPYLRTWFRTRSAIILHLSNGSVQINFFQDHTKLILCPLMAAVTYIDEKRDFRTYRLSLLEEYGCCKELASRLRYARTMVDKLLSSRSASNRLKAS
Method: PLK1 inhibition was determined using the Z-Lyte assay kit from Invitrogen (cat #PV3802). […] The % inhibition values were determined according to the manufacturer's directions and IC50 values were obtained using a non-linear 4 point logistic curve fit (XLfit4, IDBS)

IC50 (human PLK4)	IC50 (PLK3)	IC50 (Aurora B)	inhibition at 10 µM (PLK2)	GI50 [1]	GI50 [2]	GI50 (A549 lung cancer cells)	GI50 (SW620 colon cancer cells)	GI50 [3]	IC50 (Aurora A)	inhibition at 10 µM (PLK1; 10 μM compound, read-out: PLK1 relative inhibition percentage at a dose of 10 μM)	IC50 (PLK1)	IC50 (PLK2; 60 μM ATP, 133 nM PLK2, read-out: PLK2 IC50 Ranges)	inhibition at 10 µM (Aurora B; 10 μM compound, read-out: Aurora B relative inhibition percentage at a dose of 10 μM)	inhibition at 10 µM (Aurora A; 10 μM compound, read-out: Aurora A relative inhibition percentage at a dose of 10 μM)	SMILES
5 to 50 µM	> 0.5 µM														N#Cc1cccc2c1NC(=O)C2=Cc1ccc2cn[nH]c2c1 (mixture of isomers) [Example A45, (E and Z)-3-((1H-indazol-6-yl)methylene)-2-oxoindoline-7-carbonitrile]
< 5 µM		< 5 µM	< 50%	< 5 µM	5 to 20 µM	5 to 20 µM	< 5 µM	< 5 µM	< 5 µM	< 50%					COc1ccccc1/C=C/c1n[nH]c2cc(C=C3C(=O)Nc4ccccc43)ccc12 (mixture of isomers) [Example A59, (E and Z)-3-((3-((E)-2-methoxystyryl)-1H-indazol-6-yl)methylene)-indolin-2-one]
< 5 µM	> 0.5 µM	< 5 µM							5 to 50 µM						CN(C)c1ccc(C#Cc2n[nH]c3cc(C=C4C(=O)Nc5ccccc54)ccc23)cc1 (mixture of isomers) [Example A149, (E and Z)-3-((3-((4-(dimethylamino)phenyl)ethynyl)-1H-indazol-6-yl)methylene)indolin-2-one]
< 5 µM	> 0.5 µM	< 5 µM							< 5 µM						COc1ccc2c(c1)C(=Cc1ccc3c(-c4cccc(-c5nnn[nH]5)c4)n[nH]c3c1)C(=O)N2 (mixture of isomers) [Example A153, (E and Z)-3-((3-(3-(1H-tetrazol-5-yl)phenyl)-1H-indazol-6-yl)methylene)-5-methoxyindolin-2-one]
< 5 µM	> 0.5 µM	< 5 µM	< 50%	5 to 20 µM				> 50 µM	< 5 µM		5 to 50 µM				Nc1ccc2c(c1)/C(=C\c1ccc3[nH]nnc3c1)C(=O)N2 [Example A2, (E)-3-((1H-benzo[d][1,2,3]triazol-5-yl)methylene)-5-aminoindolin-2-one]
< 5 µM	> 0.5 µM	< 5 µM		5 to 20 µM				5 to 20 µM	< 5 µM		5 to 50 µM	< 5 µM			O=C1Nc2ccccc2/C1=C\c1ccc2[nH]ncc2c1 [Example A6, (E)-3-((1H-indazol-5-yl)methylene)indolin-2-one]
< 5 µM	> 0.5 µM		< 50%						< 5 µM		5 to 50 µM		< 50%		CC(C)NC(=O)Nc1ccc2c(c1)/C(=C\c1ccc3cn[nH]c3c1)C(=O)N2 [Example A26, (E)-1-(3-((1H-indazol-6-yl)methylene)-2-oxoindolin-5-yl)-3-isopropylurea]
< 5 µM	> 0.5 µM		> 50%								> 50 µM				CC(=O)Nc1cccc2c1NC(=O)/C2=C/c1ccc2cn[nH]c2c1 [Example A49, (E)-N-(3-((1H-indazol-6-yl)methylene)-2-oxoindolin-7-yl)acetamide]
< 5 µM	> 0.5 µM	< 5 µM												> 50%	Cc1ccc2c(c1)/C(=C\c1ccc3c(/C=C/C(=O)N(C)CCN(C)C)n[nH]c3c1)C(=O)N2 [Example A125, (E and Z)—N-(2-(dimethylamino)ethyl)-N-methyl-3-(6-((E)-(5-methyl-2-oxoindolin-3-ylidene)methyl)-1H-indazol-3-yl)acrylamide]
< 5 µM	> 0.5 µM	< 5 µM		< 5 µM	< 5 µM	5 to 20 µM	< 5 µM	< 5 µM	< 5 µM						CC(C)c1ccc2c(c1)/C(=C\c1ccc3c(/C=C/c4ccncc4)n[nH]c3c1)C(=O)N2 [Example A127, (E)-5-isopropyl-3-((3-((E)-2-(pyridin-4-yl)vinyl)-1H-indazol-6-yl)methylene)indolin-2-one 2,2,2-trifluoroacetate]
< 5 µM	> 0.5 µM	< 5 µM													COc1ccc2c(c1)/C(=C\c1ccc3c(C#Cc4cccnc4)n[nH]c3c1)C(=O)N2 [Example A148, (E)-5-methoxy-3-((3-(pyridin-3-ylethynyl)-1H-indazol-6-yl)methylene)indolin-2-one]
< 5 µM	> 0.5 µM	5 to 50 µM													CN1CCN(c2ncc(-c3n[nH]c4cc(C=C5C(=O)Nc6ccc(OC(F)(F)F)cc65)ccc34)cn2)CC1 [Example A152, (E & Z)-3-((3-(2-(4-methylpiperazin-1-yl)pyrimidin-5-yl)-1H-indazol-6-yl)methylene)-5-(trifluoromethoxy)indolin-2-one]
